Experimental data from US6914045B2, “Glycopeptide antibiotics” (Wyeth Holdings Corporation, priority 2001, dated 2005).
≈ marks a conversion by molar mass, not a printed value.

Experiments:
Experiment in all cases: in vitro antibacterial evaluation, MIC by broth dilution
Assay type in all cases: cell-based
Enterococcus sp. = settings: broth dilution, 18 hours at 35° C.; for MIC Enterococcus faecalis (ATCC 29212): strain ATCC 29212; for MIC Enterococcus faecium (GC 2243): strain GC 2243; for MIC Enterococcus faecalis (GC 4554): strain GC 4554; for MIC Enterococcus faecium (GC 4556): strain GC 4556; for MIC Enterococcus faecium (GC 4557): strain GC 4557; for MIC Enterococcus avium (GC 4558): strain GC 4558; for MIC Enterococcus faecalis (GC 6189): strain GC 6189
Outline: (§1)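 MIC, the lowest antibiotic concentration preventing growth, was read across 64-0.06 μg/mL with 5×10^5 CFU/mL inoculum. Method followed NCCLS M7-A2 broth dilution using Mueller-Hinton II; Gram-positive strains covered recent methicillin-, penicillin- and/or vancomycin-resistant clinical isolates.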

Escherichia coli = system: Escherichia coli
Outline: as §1

Staphylococcus sp. = settings: broth dilution, 18 hours at 35° C.
Outline: as §1

Streptococcus sp. = settings: broth dilution, 18 hours at 35° C.
Outline: as §1

MIC Enterococcus faecalis (GC 2242) (Enterococcus sp.; Enterococcus faecalis (GC 2242)): 0.5 to 1 µg/mL
MIC Enterococcus faecalis (GC 2691) (Enterococcus sp.; Enterococcus faecalis (GC 2691)): 0.5 µg/mL (≈ 0.362 µM)
MIC Enterococcus faecalis (GC 3059) (Enterococcus sp.; Enterococcus faecalis (GC 3059)): 0.5 µg/mL (≈ 0.362 µM)
MIC Enterococcus faecalis (ATCC 29212) (Enterococcus sp.; inoculum 5×10^5 CFU/mL): 0.5 to 1 µg/mL
MIC Enterococcus faecium (GC 2243) (Enterococcus sp.; inoculum 5×10^5 CFU/mL): <0.5 to 1 µg/mL
MIC Enterococcus faecalis (GC 4554) (Enterococcus sp.; inoculum 5×10^5 CFU/mL): 0.5 to 1 µg/mL
MIC Enterococcus faecium (GC 4556) (Enterococcus sp.; inoculum 5×10^5 CFU/mL): 1 to 2 µg/mL
MIC Enterococcus faecium (GC 4557) (Enterococcus sp.; inoculum 5×10^5 CFU/mL): 1 to 2 µg/mL
MIC Enterococcus avium (GC 4558) (Enterococcus sp.; inoculum 5×10^5 CFU/mL): 0.5 to 1 µg/mL
MIC Enterococcus faecalis (GC 6189) (Enterococcus sp.; inoculum 5×10^5 CFU/mL): 0.5 µg/mL (≈ 0.362 µM)
MIC Enterococcus faecalis (ATCC 29212) (Enterococcus sp.): 0.5 to 1 µg/mL
MIC Enterococcus faecalis (GC 2242) (Enterococcus sp.; strain GC 2242): 0.5 to 1 µg/mL
MIC Enterococcus faecium (GC 2243) (Enterococcus sp.): <0.5 to 1 µg/mL
MIC Enterococcus faecalis (GC 2691) (Enterococcus sp.; strain GC 2691): 0.5 µg/mL (≈ 0.362 µM)
MIC Enterococcus faecalis (GC 3059) (Enterococcus sp.; strain GC 3059): 0.5 µg/mL (≈ 0.362 µM)
MIC Enterococcus faecalis (GC 4554) (Enterococcus sp.): 0.5 to 1 µg/mL
MIC Enterococcus faecium (GC 4556) (Enterococcus sp.): 1 to 2 µg/mL
MIC Enterococcus faecium (GC 4557) (Enterococcus sp.): 1 to 2 µg/mL
MIC Enterococcus avium (GC 4558) (Enterococcus sp.): 0.5 to 1 µg/mL
MIC Enterococcus faecalis (GC 6189) (Enterococcus sp.): 0.5 µg/mL (≈ 0.362 µM)
MIC Escherichia coli (ATCC 25922) (Escherichia coli; strain ATCC 25922, 18 hours at 35° C.): >64 µg/mL
MIC Escherichia coli (GC 4559) (Escherichia coli; strain GC 4559, 18 hours at 35° C.): >64 µg/mL
MIC Escherichia coli (GC 4560) (Escherichia coli; strain GC 4560, 18 hours at 35° C.): 0.5 to 2 µg/mL
MIC Staphylococcus aureus (GC 3051) (Staphylococcus sp.; strain GC 3051): 0.5 µg/mL (≈ 0.362 µM)
MIC Staphylococcus aureus (GC 3053) (Staphylococcus sp.; strain GC 3053): 0.5 µg/mL (≈ 0.362 µM)
MIC Staphylococcus aureus (GC 4545) (Staphylococcus sp.; strain GC 4545): 0.5 to 1 µg/mL
MIC Coagulase Negative Staphylococcus (GC 4547) (Staphylococcus sp.; strain GC 4547): <0.5 to 2 µg/mL
MIC Coagulase Negative Staphylococcus (GC 4548) (Staphylococcus sp.; strain GC 4548): <0.5 to 1 µg/mL
MIC Coagulase Negative Staphylococcus (GC 4549) (Staphylococcus sp.; strain GC 4549): <0.5 to 1 µg/mL
MIC Coagulase Negative Staphylococcus (GC 4551) (Staphylococcus sp.; strain GC 4551): <0.5 to 1 µg/mL
MIC Coagulase Negative Staphylococcus (GC 6257) (Staphylococcus sp.; strain GC 6257): 1 µg/mL (≈ 0.725 µM)
MIC Coagulase Negative Staphylococcus (ID-3941) (Staphylococcus sp.; strain ID-3941): <0.5 µg/mL
MIC Streptococcus agalactiae (GC 4564) (Streptococcus sp.; Streptococcus agalactiae (GC 4564)): <0.12 µg/mL
MIC Streptococcus pneumoniae (ATCC 6301) (Streptococcus sp.; Streptococcus pneumoniae (ATCC 6301)): 0.12 µg/mL (≈ 0.087 µM)
MIC Streptococcus pneumoniae (GC 1894) (Streptococcus sp.; Streptococcus pneumoniae (GC 1894)): 0.12 µg/mL (≈ 0.087 µM)
MIC Streptococcus pyogenes (GC 4563) (Streptococcus sp.; Streptococcus pyogenes (GC 4563)): >0.12 µg/mL
MIC Streptococcus pyogenes (ID-3187) (Streptococcus sp.; Streptococcus pyogenes (ID-3187)): <0.5 µg/mL
MIC Streptococcus pneumoniae (ATCC 6301) (Streptococcus sp.; strain ATCC 6301): 0.12 µg/mL (≈ 0.087 µM)
MIC Streptococcus pneumoniae (GC 1894) (Streptococcus sp.; strain GC 1894): 0.12 µg/mL (≈ 0.087 µM)
MIC Streptococcus pyogenes (GC 4563) (Streptococcus sp.; strain GC 4563): >0.12 µg/mL
MIC Streptococcus agalactiae (GC 4564) (Streptococcus sp.; strain GC 4564): <0.12 µg/mL
MIC Streptococcus pyogenes (ID-3187) (Streptococcus sp.; strain ID-3187): <0.5 µg/mL
SMILES: CC(c1ccccc1)C1NC(=O)CNC(=O)C(CO)NC(=O)C(C(O)C2CNC(=N)N2C2OC(CO)C(O)C(O)C2O)NC(=O)C(C(O)C2CNC(=NC(=O)C(C)(C)C)N2)NC(=O)C(Cc2ccc(OC3OC(CO)C(OC4OC(CO)C(O)C(O)C4O)C(O)C3O)cc2)NC1=O (stereo not shown) [Example 155]
MIC Staphylococcus haemolyticus (GC 4546) (Staphylococcus sp.; strain GC 4546): <0.5 to 1 µg/mL
